Test results from patent US20240099214A1, “PLANT DEFENCE GENE EXPRESSION” (UPL Corporation Limited, priority 2021, published 2024).

Legend:
[1] = tested on: Pathogenesis-related protein P4 (gene 11, M69247.1); assay: qRT-PCR expression of gene 11 in tomato leaves; format: in vivo, Tomato ecotype corbarino; set-up: key: relative expression normalized to a-tubulin housekeeping gene
Method: (§1) Tomato ecotype “corbarino” reported to be susceptible to TSWV infection was used in the experiment. Plants were grown in pots in a climatic chamber with a photoperiod of 16/8 hour at 25° C.
(§2) The viral strain (TSWV PV PV-0393) was utilized in the experiment. The virus was mechanically inoculated and propagated on tomato “corbarino”. The inoculum was prepared in an ice-cooled mortar grounding 1 gr of infected tomato tissue in 10 ml of Na-phosphate buffer 0.01M. The fresh prepared inoculum was stored in ice before use. Tomato plants at BBCH16 were dusted with Carborundum 600 mesh and selected leaves were rubbed with some droplets of inoculum. After 5 min. plants were sprayed with sterile water to remove the excess of inoculum and preserve the cell turgor.
(§3) Four treatments were compared: i) Mock inoculated; ii) TSWV; iii) 0.25% Laminarin; iv) 0.25% Laminarin+TSWV. In the last treatment the virus was inoculated 24 hrs after the laminarin application.
(§4) Total RNA was extracted from systemic infected tomato leaves by using the Quick-RNA Plant Kit (Zymo Research) following the manufacturer instructions. The extractions were carried out using three plants after 12 h, 24 h, 48 h, 72 h, 7 days after inoculation. Leaves were instantly frozen in liquid nitrogen after cutting to avoid any deterioration of the sample as well as any defense reaction. The RNA concentration was quantified by measuring the absorbance at 260 nm using a Nanodrop 2000 (Thermofisher). The purity of all of the RNA samples was assessed at an absorbance ratio of OD260/280 and OD260/230, while its structural integrity was checked by agarose gel electrophoresis. Only high-quality RNA with OD 260/280 and OD 260/230>2 was used for subsequent steps. Single-stranded cDNA was synthesized from 1 μg of total RNA using an iScript™ Select cDNA Synthesis Kit and random hexamers as primers (Bio-Rad, Milan, Italy), according to the manufacturer's instructions. Three biological replicates were created from the 3 leaves collected to test 15 genes. Alpha tubulin was used as reference gene.
(§5) qPCR reactions were performed with BioRad (Applied Biosystems, Foster City, CA, USA) using SYBR R Green. Each reaction was performed in 20 μl containing 10 μl of 2× Power SYBR Green PCR Master Mix (Life Technologies), 0.2-0.3 μM primers and cDNA samples diluted 1:20. Each qPCR reaction was performed in triplicate. Reactions were run using the cycling parameter described previously (Reid et al., 2006) and the qPCR data were analyzed by the Ct method (Pfaffl, 2001). In order to analyze the qPCR data, a-tubulin gene was used as housekeeping to determine the relative expression level of the other genes analyzed in this work. For the determination of qPCR efficiency of each primer pairs, a standard curve was performed using the following cDNA dilutions: 1:4, 1:16, 1:64; 1:256 and 1:1024. Every measurement was made in triplicate. The corresponding qPCR efficiencies (E) were calculated for every primer pair with the software 7300 System SDS software (Applied Biosystems, Foster City, CA, USA) according to the equation E=(10−1/slope−1)×100 (Rutledge and Stewart, 2008).
(§6) The significance of the differences between the gene expressions levels were compared by one-way ANOVA (p=0.01) and the means were separated by Tukey post-hoc test using SPSS ver.26 ([…]).

[2] = tested on: Tropinone reductase homolog at 1g07440-like (gene 10, Solyc06g083470.2); assay: qRT-PCR expression of gene 10 in tomato leaves; format: in vivo, Tomato ecotype corbarino; set-up: key: relative expression normalized to a-tubulin housekeeping gene
Method: as §1, §2, §3, §4, §5, §6

## laminarin
[1]; 12 hr, Laminarin + virus
  RQ1: 12.101
  RQ2: 11.431
  RQ3: 10.206
  RQ mean: 11.246
[1]; 12 hr, Laminarin alone
  RQ1: 0.9441
  RQ2: 0.8925
  RQ3: 11.302
  RQ mean: 0.9889
[1]; 24 hr, Laminarin + virus
  RQ1: 13.862
  RQ2: 11.424
  RQ3: 11.236
  RQ mean: 12.174
[1]; 24 hr, Laminarin alone
  RQ1: 17.183
  RQ2: 12.595
  RQ3: 13.075
  RQ mean: 14.284
[1]; 48 hr, Laminarin + virus
  RQ1: 28.058
  RQ2: 20.254
  RQ3: 34.812
  RQ mean: 27.708
[1]; 48 hr, Laminarin alone
  RQ1: 34.926
  RQ2: 33.905
  RQ3: 24.218
  RQ mean: 31.016
[1]; 72 hr, Laminarin + virus
  RQ1: 80.672
  RQ2: 76.025
  RQ3: 53.346
  RQ mean: 70.014
[1]; 72 hr, Laminarin alone
  RQ1: 47.958
  RQ2: 51.518
  RQ3: 48.365
  RQ mean: 49.280
[2]; 12 hr, Laminarin + virus
  RQ1: 11.314
  RQ2: 15.111
  RQ3: 14.571
  RQ mean: 13.665
[2]; 12 hr, Laminarin alone
  RQ1: 10.134
  RQ2: 11.716
  RQ3: 14.046
  RQ mean: 11.966
[2]; 24 hr, Laminarin + virus
  RQ1: 12.827
  RQ2: 10.653
  RQ3: 14.308
  RQ mean: 12.596
[2]; 24 hr, Laminarin alone
  RQ1: 13.673
  RQ2: 15.462
  RQ3: 14.026
  RQ mean: 14.387
[2]; 48 hr, Laminarin + virus
  RQ1: 10.393
  RQ2: 11.439
  RQ3: 11.568
  RQ mean: 11.133
[2]; 48 hr, Laminarin alone
  RQ1: 14.550
  RQ2: 13.402
  RQ3: 19.692
  RQ mean: 15.882
[2]; 72 hr, Laminarin + virus
  RQ1: 10.994
  RQ2: 19.941
  RQ3: 16.529
  RQ mean: 15.821
[2]; 72 hr, Laminarin alone
  RQ1: 28.092
  RQ2: 16.708
  RQ3: 22.307
  RQ mean: 22.369
